Source: patent US4545991A, “Difficidin and derivative antibacterials” (Merck & Co., Inc., priority 1983, dated 1985)
In brackets after ≈: the same amount, converted by molar mass.

What was measured:
Prot. mirabilis Gm^R = assay: MIC, in vitro agar dilution assay, aerobic bacteria (Table II); assay type: cell-based; conditions: 10^6 CFU per spot
Veillonella alcalescens = assay: MIC, in vitro agar dilution assay, anaerobic bacteria (Table III); assay type: cell-based; conditions: 10^6 CFU per spot
Ent. cloacae P99^- = assay: MIC, in vitro agar dilution assay, aerobic bacteria (Table II); assay type: cell-based; conditions: Ent. cloacae P99^-; 10^6 CFU per spot
pH of aqueous solution = assay type: physicochemical
Sal. typhimurium = assay: MIC, in vitro agar dilution assay, aerobic bacteria (Table II); assay type: cell-based; conditions: 10^6 CFU per spot
solubility = assay type: physicochemical; conditions: water, lower alcohols such as methanol and ethanol
Ent. aerogenes = assay: MIC, in vitro agar dilution assay, aerobic bacteria (Table II); assay type: cell-based; conditions: Ent. aerogenes; 10^6 CFU per spot
Ent. cloacae P99^+ = assay: as above; assay type: cell-based; conditions: Ent. cloacae P99^+; 10^6 CFU per spot
[1] = test system: Klebsiella pneumoniae MB 4005; assay: MIC listed with mouse protection test (Table IV); assay type: cell-based
[2] = test system: Bifidobacterium dentium Fox^r; assay: MIC, in vitro agar dilution assay, anaerobic bacteria (Table III); assay type: cell-based; conditions: Bifidobacterium dentium Fox^r; 10^6 CFU per spot
Vibrio percolans MB 1272 = assay: in vitro agar disc diffusion bioassay of column fractions (Table V); assay type: cell-based
Procedure: A 0.4 ml sample of 2.1 L spent ethyl acetate fraction from Step A above was evaporated to an oily residue and taken up in 0.7 ml of 7:3 methanol-0.01Mpotassium phosphate pH 7.0. A 0.4 ml aliquot of the solution was chromatographed in the same solvent at 28° C. on a Dupont Zorbax ODS column (4.6 mn ID×25 cm), 10 micron. The flow rate was 1 ml/min. and column effluent was monitored at 275 nm using a Laboratory Data Control Spectra Monitor I ultraviolet detector equipped with a 10 mm pathlength flow cell and a Honeywell Electronik 195 recorder. Eluate was collected in 0.5 ml fractions and assayed by agar disc diffusion against Vibrio percolans MB 1272. Table V summaries bioassay results.
The data in Table V show the presence of two distinct antibacterial substances in spent ethyl acetate. The activity in Fractions 11 and 12 is due to the antibacterial oxydifficidin. The activity in Fractions 61-65 is due to the antibacterial difficidin.

[3] = test system: Clostridium perfringens NCCLS control strain; assay: microbe, parasite or virus in culture; assay type: cell-based; conditions: Clostridium perfringens NCCLS control strain; 10^6 CFU per spot
anaerobic bacteria = assay: antibacterial activity against anaerobic bacteria, summary; assay type: cell-based; conditions: wide spectrum of anaerobic bacteria
Prot. morganii Sm^R = assay: MIC, in vitro agar dilution assay, aerobic bacteria (Table II); assay type: cell-based; conditions: Prot. morganii Sm^R; 10^6 CFU per spot
[4] = test system: B. distasonis Pen^r Fox^r Clind^r; assay: MIC, in vitro agar dilution assay, anaerobic bacteria (Table III); assay type: cell-based; conditions: 10^6 CFU per spot
aerobic microorganisms = assay: antibacterial activity against aerobic microorganisms, summary; assay type: cell-based; conditions: such as Pseudomonas aeruginosa and Staphyloccoccus aureus
C. ramosum = assay: MIC, in vitro agar dilution assay, anaerobic bacteria (Table III); assay type: cell-based; conditions: 10^6 CFU per spot
[5] = test system: B. fragilis Clind^r Fox^r Tet^r; assay: as above; assay type: cell-based; conditions: 10^6 CFU per spot
E. coli TEM 2^+ DC 2 = assay: MIC, in vitro agar dilution assay, aerobic bacteria (Table II); assay type: cell-based; conditions: E. coli TEM 2^+ DC 2; 10^6 CFU per spot
[6] = test system: B. thetaiotaomicron Clind^r; assay: MIC, in vitro agar dilution assay, anaerobic bacteria (Table III); assay type: cell-based; conditions: 10^6 CFU per spot
[7] = decomposition during lyophilization; assay type: physicochemical; conditions: lyophilization of (IV) to (V)
Procedure: There is evidence that from 10-15% decomposition of oxydifficidin may have occurred during lyophilization of (IV) to (V). Based on the lyophilized weight of (V) and the UV analysis of (IV), A1 cm^1% (275 nm)--438 is calculated.

Row | Structure (SMILES) | MIC (Prot. mirabilis Gm^R) [µg/mL] | MIC (Veillonella alcalescens) [µg/mL] | MIC (Ent. cloacae P99^-) [µg/mL] | MIC (Sal. typhimurium) [µg/mL] | MIC (Ent. aerogenes) [µg/mL] | MIC (Ent. cloacae P99^+) [µg/mL] | MIC [1] [µg/mL] | MIC [3] [µg/mL] | activity against anaerobic bacteria (anaerobic bacteria) | MIC (Prot. morganii Sm^R) [µg/mL] | MIC [4] [µg/mL] | MIC (C. ramosum) [µg/mL] | MIC [5] [µg/mL] | MIC (E. coli TEM 2^+ DC 2) [µg/mL] | MIC [6] [µg/mL] | further results
1 | C=CC=C(C)CCC1CC=CC=C(C)C(OP(=O)(O)O)CCCC=CC=CC=CCC(C)C(=C)CC(=O)O1 (stereo not drawn) [Difficidin, difficidin] | 8.0 (≈ 14.7 µM) | 0.25 (≈ 0.459 µM) | 8.0 (≈ 14.7 µM) | 8.0 (≈ 14.7 µM) | 8.0 (≈ 14.7 µM) | 16.0 (≈ 29.4 µM) | 8 (≈ 14.7 µM) | > 128 | active against a wide spectrum of anaerobic bacteria | 2.0 (≈ 3.67 µM) | 0.06 (≈ 0.11 µM) | 2 (≈ 3.67 µM) | 0.25 (≈ 0.459 µM) | 8.0 (≈ 14.7 µM) | 0.25 (≈ 0.459 µM) | pH of 0.1% by weight aqueous solution (pH of aqueous solution): 6.9; solubility (solubility): soluble in water, lower alcohols such as methanol and ethanol; MIC [2]: 32 µg/mL (≈ 58.8 µM); Zone Diameter (Vibrio percolans MB 1272; Fraction 61, 40 μl on 3/8" disc): 12 mm; Zone Diameter (Vibrio percolans MB 1272; Fraction 62, 40 μl on 3/8" disc): 12 mm; Zone Diameter (Vibrio percolans MB 1272; Fraction 63, 40 μl on 3/8" disc): 12 mm; Zone Diameter (Vibrio percolans MB 1272; Fraction 64, 40 μl on 3/8" disc): 12 mm; Zone Diameter (Vibrio percolans MB 1272; Fraction 65, 40 μl on 3/8" disc): 12 mm; potency against aerobic microorganisms relative to oxydifficidin (aerobic microorganisms): more potent than oxydifficidin
2 | C=CC=C(C)CCC1CC=CC=C(C)C(OP(=O)(O)O)CCCC=CC=CC=CC(O)C(C)C(=C)CC(=O)O1 (stereo not drawn) [Oxydifficidin, oxydifficidin] | 32.0 (≈ 57.1 µM) | 0.06 (≈ 0.107 µM) | 64.0 (≈ 114 µM) | 32.0 (≈ 57.1 µM) | 32.0 (≈ 57.1 µM) | 32.0 (≈ 57.1 µM) | 8 (≈ 14.3 µM) | > 128 | active against a wide spectrum of anaerobic bacteria | 2.0 (≈ 3.57 µM) | 0.06 (≈ 0.107 µM) | 2 (≈ 3.57 µM) | 0.25 (≈ 0.446 µM) | 8.0 (≈ 14.3 µM) | 0.25 (≈ 0.446 µM) | Zone Diameter (Vibrio percolans MB 1272; Fraction 11, 40 μl on 3/8" disc): 23 mm; Zone Diameter (Vibrio percolans MB 1272; Fraction 12, 40 μl on 3/8" disc): 19 mm; decomposition during lyophilization [7]: 10-15%
